How the values were obtained:
NL4-3 strain of HIV-1 = assay: Multiple cycle infection assay of CAp24 antigen production; type: cell-based; conditions: Human immunodeficiency virus 1, NL43, SUP-T1, 96 h, multiple cycle infection with NL4-3 virus, SupT1, MT4 or PBMC, MOI 0.01, day 4 and day −6 post-infection; threshold below 5 μM; read-out: EC50 for antiviral activity (50% inhibition of CA p24 production)
[1] = tested on: Env-deleted NL4-3 vector virus pseudotyped with the VSV g envelope; assay: microbe, parasite or virus in culture; type: cell-based, HIV-1; conditions: Vesicular stomatitis virus, NL43, SUP-T1, 48 h, read-out: EC50 for antiviral activity (50% inhibition of luciferase activity)

| Compound | EC50 (NL4-3 strain of HIV-1) [µM] | EC50 [1] [µM] |
| --- | --- | --- |
| COc1cc(C)ccc1CN(C)C(=O)CCCSc1ccc(O)cc1 [Example 75, 4-[(4-Hydroxyphenyl)thio]-N-(2-methoxy-4-methylbenzyl)-N-methylbutanamide] | < 5 | < 5 |
| COc1ccc(F)cc1CN(C)C(=O)CCCSc1ccc(CO)cc1 [Example 148, N-(5-fluoro-2-methoxybenzyl)-4-{[4-(hydroxymethyl)phenyl]thio}-N-methylbutanamide] | < 5 | < 5 |
| COc1ccc(F)cc1CN(C)C(=O)CCCSc1ccc(C)cc1 [Example 111, N-(5-fluoro-2-methoxybenzyl)-N-methyl-4-[(4-methylphenyl)thio]butanamide] | < 5 | < 5 |
| COc1ccc(Br)cc1CN(C)C(=O)CCCSc1ccc(F)cc1 [Example 92, N-(5-Bromo-2-methoxybenzyl)-4-[(4-fluorophenyl)thio]-N-methylbutanamide] | < 5 | < 5 |
| CN(Cc1cc(F)cc2c1OCOC2)C(=O)CCCSc1ccc(F)cc1 [Example 96, N-[(6-fluoro-4H-1,3-benzodioxin-8-yl)methyl]-4-[(4-fluorophenyl)thio]-N-methylbutanamide] | < 5 | < 5 |
| CN(Cc1cccc(Cl)c1Cl)C(=O)CCCSc1ccc(O)cc1 [Example 34, N-(2,3-Dichlorobenzyl)-4-[(4-hydroxyphenyl)thio]-N-methylbutanamide] | < 5 | < 5 |
| COc1ccccc1CN(C)C(=O)CCCSc1ccc(NS(C)(=O)=O)cc1 [Example 93, N-(2-Methoxybenzyl)-N-methyl-4-{[4-(methylsulfonylamino)phenyl]thio}butanamide] | < 5 | < 5 |
| COc1ccc(F)cc1N(C)C(=O)CCCSc1ccc(F)cc1 [Example 102, N-(5-fluoro-2-methoxyphenyl)-4-[(4-fluorophenyl)thio]-N-methylbutanamide] | < 5 | < 5 |
